# Source: patent publication US8426447B2, “Spiro-tricyclic ring compounds as beta-secretase modulators and methods of use” (Amgen Inc., priority 2008, dated 2013)
# Legend:
# [1] = target: T1, BACE1 (Homo sapiens, UniProt P56817); assay: In Vitro BACE Cell-based Assay (HEK cell assay): Aβ40 in conditioned medium of cells stably expressing Amyloid Precursor Protein, sandwich ELISA; conditions: read-out: HEK cell assay
# Procedure, shortened: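 First, APP-stable cells grow 24 h at 37° C., 5% CO2. Next, test compounds are added for 24 h (10 doses, 0.1% DMSO). Finally, medium Aβ40 is determined by pAb40/6E10 sandwich ELISA with Europium TRF, and IC50 is calculated.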
# [2] = target: T1, BACE1; assay: In Vitro Enzymatic BACE FRET (Fluorescence Resonance Energy Transfer) Assay; format: biochemical; conditions: read-out: BACE1 FRET assay
# Procedure, shortened: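 Buffer 0.05 M acetate pH 4.2 with 10% DMSO final and 100 uM genapol; reaction started with 50 nM FRET peptide substrate (fluorophore/quencher flanking BACE cleavage site), incubated one hour. Stopped with Tris buffer raising pH to neutrality, then fluorescence read.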
# [3] = HEK cell-based assay, Aβ40 in conditioned medium, IC50 class symbols
# [4] = in vitro BACE FRET enzyme assay, IC50 class symbols
# T1 sequence (P56817 46-501, species assumed): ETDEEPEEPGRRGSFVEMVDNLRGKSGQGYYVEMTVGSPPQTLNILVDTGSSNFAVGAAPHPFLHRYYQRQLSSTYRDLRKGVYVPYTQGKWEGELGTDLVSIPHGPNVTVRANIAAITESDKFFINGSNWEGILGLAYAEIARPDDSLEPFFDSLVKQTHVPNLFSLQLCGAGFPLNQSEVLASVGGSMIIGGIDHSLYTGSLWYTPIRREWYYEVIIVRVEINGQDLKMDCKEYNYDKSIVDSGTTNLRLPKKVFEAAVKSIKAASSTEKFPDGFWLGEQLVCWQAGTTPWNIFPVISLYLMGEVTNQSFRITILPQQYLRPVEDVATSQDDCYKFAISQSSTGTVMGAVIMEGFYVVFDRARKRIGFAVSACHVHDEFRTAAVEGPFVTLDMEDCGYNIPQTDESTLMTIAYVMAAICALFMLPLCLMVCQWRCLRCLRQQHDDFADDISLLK
compound,measurement,setting,value
CC(C)(C)OC(=O)n1cccc1-c1ccc2c(c1)[C@@]1(COC(N)=N1)c1cccc(F)c1O2 [compound 510],IC50,[1]; HEK cells,1 to 5 µM
same,IC50,[2],1 to 5 µM
CC(C)(C)COc1cnc2c(c1)[C@]1(COC(N)=N1)c1cc(-c3cncc(F)c3)ccc1O2 [compound 389],IC50,[1]; [3],< 0.1 µM
same,IC50,[2]; [4],< 0.1 µM
CC(C)(C)C#Cc1cnc2c(c1)[C@@]1(COC(N)=N1)c1cc(-c3cncnc3)cc(F)c1O2 [compound 538],IC50,"[1]; Table IV, class symbols",0.1 to 1 µM
same,IC50,"[2]; Table IV, class symbols",0.1 to 1 µM
Cc1ccc(-c2ccc3c(c2)[C@]2(COC(N)=N2)c2cc(-c4cncnc4)ccc2O3)s1 [compound 820],IC50,"[1]; Table IV, class symbols",< 0.1 µM
same,IC50,"[2]; Table IV, class symbols",< 0.1 µM
NC1=NC2(CO1)c1cc(C3CC3)ccc1Oc1ccc(C3CC3)cc12 [compound 760],IC50,[1],1 to 5 µM
same,IC50,[2],1 to 5 µM
CC(C)(C)OC(=O)Cc1ccc2c(c1)[C@]1(COC(N)=N1)c1cc(Br)ccc1O2 [compound 707],IC50,[1],> 5 µM
same,IC50,[2],> 5 µM
CC(C)(C)COc1ccc2c(c1)[C@@]1(COC(N)=N1)c1cc(-c3ccc(OCC(F)(F)F)nc3)cnc1O2 [compound 740],IC50,[1],< 0.1 µM
same,IC50,[2],< 0.1 µM
CC(C)(C)COc1ccc2c(c1)[C@]1(COC(N)=N1)c1cc(-c3csc(C(F)F)c3)ccc1O2 [compound 737],IC50,[1],0.1 to 1 µM
same,IC50,[2],< 0.1 µM
CC(C)(C)COc1ccc2c(n1)[C@]1(COC(N)=N1)c1cc(-c3cncnc3)ccc1O2 [compound 733],IC50,[1],< 0.1 µM
same,IC50,[2],< 0.1 µM
"COc1ccc2c(c1)C1(COC(N)=N1)c1cc(-c3cccnc3Cl)ccc1O2 (centres unmarked) [Example 21, 2′-(2-chloro-3-pyridinyl)-7′-methoxyspiro[1,3-oxazole-4,9′-xanthen]-2-amine trifluoroacetic acid]",IC50,"[1]; Table 1, Aβ40, 24 h incubation",> 5 µM
same,IC50,[2]; Table 1,1 to 5 µM
CC1(COc2cnc3c(c2)[C@]2(COC(N)=N2)c2cc(-c4cc(F)ccc4F)ccc2O3)COC1 [compound 412],IC50,[1]; [3],< 0.1 µM
same,IC50,[2]; [4],< 0.1 µM
CC(C)c1nc(-c2ccc3c(c2)[C@@]2(COC(N)=N2)c2cc(OCC(C)(C)C)ccc2O3)cs1 [compound 832],IC50,"[1]; Table IV, class symbols",1 to 5 µM
same,IC50,"[2]; Table IV, class symbols",0.1 to 1 µM
NC1=N[C@@]2(CO1)c1cc(-c3cccnc3)ccc1Oc1ccc(-c3cccnc3)nc12 [compound 989],IC50,[1],0.1 to 1 µM
same,IC50,[2],0.1 to 1 µM
CCCOc1cc2c(cc1F)Oc1ccc(-c3cncnc3)cc1[C@@]21COC(N)=N1 [compound 940],IC50,[1],< 0.1 µM
same,IC50,[2],< 0.1 µM
Cc1ccc(-n2ccc3c(c2=O)[C@]2(COC(N)=N2)c2cc(-c4cccnc4)ccc2O3)cc1 [compound 504],IC50,[1]; HEK cells,0.1 to 1 µM
same,IC50,[2],0.1 to 1 µM
NC1=N[C@@]2(CO1)c1cc(-c3cccnc3)ccc1Oc1cnc(N3CCCCC3)cc12 [compound 445],IC50,[1]; HEK cells,< 0.1 µM
same,IC50,[2],< 0.1 µM
CC1(COc2ccc3c(c2)[C@]2(COC(N)=N2)c2cc(Br)cnc2O3)COC1 [compound 164],IC50,"[1]; Table III, IC50's in uM ranges",1 to 5 µM
same,IC50,"[2]; Table III, IC50's in uM ranges",0.1 to 1 µM
COC(C)(C)C#Cc1cc(F)c2c(c1)[C@@]1(COC(N)=N1)c1cc(-c3ccc(F)nc3)ccc1O2 [compound 645],IC50,"[1]; Table IV, class symbols",1 to 5 µM
same,IC50,"[2]; Table IV, class symbols",0.1 to 1 µM
NC1=N[C@@]2(CO1)c1cc(-c3cccnc3)ccc1Oc1cnc(CCC3CC3)cc12 [compound 695],IC50,[1],0.1 to 1 µM
same,IC50,[2],< 0.1 µM
NC1=N[C@@]2(CO1)c1cc(-c3cccnc3)ccc1Oc1cnc(C3=CCCCC3)cc12 [compound 789],IC50,[1],< 0.1 µM
same,IC50,[2],< 0.1 µM
NC1=N[C@]2(CO1)c1cc(OCC3CCOCC3)ccc1Oc1ccc(-c3cccnc3)cc12 [compound 933],IC50,[1],< 0.1 µM
same,IC50,[2],< 0.1 µM
CC(C)(C)COc1ccc2c(c1)[C@]1(COC(N)=N1)c1cc(CO)ccc1O2 [compound 828],IC50,"[1]; Table IV, class symbols",1 to 5 µM
same,IC50,"[2]; Table IV, class symbols",1 to 5 µM
COCC(=O)Nc1ccc2c(c1)[C@@]1(COC(N)=N1)c1cc(OC)ccc1O2 [compound 613],IC50,"[1]; Table IV, class symbols",0.1 to 1 µM
same,IC50,"[2]; Table IV, class symbols",0.1 to 1 µM
NC1=N[C@]2(CO1)c1cc(-c3ccc(O)cc3)ccc1Oc1ccc(-c3cncnc3)cc12 [compound 890],IC50,"[1]; Table IV, class symbols",0.1 to 1 µM
same,IC50,"[2]; Table IV, class symbols",< 0.1 µM
CC1(COc2cc3c(cc2F)Oc2ccc(-c4cncnc4)cc2[C@]32COC(N)=N2)COC1 [compound 713],IC50,[1],0.1 to 1 µM
same,IC50,[2],0.1 to 1 µM
CC1(C)C[C@H](c2ccc3c(c2)[C@]2(COC(N)=N2)c2cc(-c4cncnc4)ccc2O3)CCO1 [compound 482],IC50,[1]; HEK cells,< 0.1 µM
same,IC50,[2],< 0.1 µM
CC1(C)CC(c2cc(F)c3c(c2)[C@]2(COC(N)=N2)c2cc(-c4cncnc4)ccc2O3)=CCO1 [compound 465],IC50,[1]; HEK cells,< 0.1 µM
same,IC50,[2],< 0.1 µM
NC1=N[C@]2(CO1)c1ccccc1Oc1ccc(-c3cccc4cccnc34)cc12 [compound 630],IC50,"[1]; Table IV, class symbols",> 5 µM
same,IC50,"[2]; Table IV, class symbols",1 to 5 µM
